Experimental data as given in patent US20200121812A1 (Teva Pharmaceuticals International GmbH, priority 2015, published 2020).

Assays:
dopamine in the striatum = experiment: Microdialysis in Sprague-Dawley rats; assay type: in vivo
[1] = system: advanced PD patients with motor fluctuations; experiment: Clinical trial of opicapone add on to deuterated levodopa/carbidopa; assay type: in vivo, human; conditions: add on opicapone 20 mg once daily, 12 weeks; expected
[2] = cited from earlier work
[3] = system: striatum (extracellular L-DOPA, DA and metabolites); experiment: Microdialysis in Wistar Rats (striatal dialysate levels after COMTi pretreatment); assay type: in vivo; conditions: COMTi 30 mg/kg p.o. 2 hours before SD-1077/Carbidopa 50/25 mg/kg p.o.; FIG. 4
striatal dopamine = conditions: cited from earlier work; for increase and prolongation of the output of striatal dopamine: WO2004/056724 and WO2007/093450
Parkinson models = conditions: cited from earlier work
6-OHDA lesioned rats = conditions: cited from earlier work; for effectiveness on motor performance compared to L-DOPA: as disclosed in WO2014/122184A1
[4] = cited from earlier work; remark: listed apart in the source
[5] = plus carbidopa, compared to conventional levodopa plus carbidopa
[6] = opicapone before levodopa (sequential dosing) compared to concomitant administration, US2014/0045900A1

For `[2H]C([2H])(c1ccc(O)c(O)c1)[C@]([2H])(N)C(=O)O` [Deulevodopa], the central bioavailability (dopamine in the striatum; [5]) was “increased” and the “half life of dopamine” value (dopamine in the striatum; [5]) was “about doubled”.
For `Cc1c(Cl)c(C)[n+]([O-])c(Cl)c1-c1noc(-c2cc(O)c(O)c([N+](=O)[O-])c2)n1` [opicapone, 2,5-dichloro-3-[5-(3,4-dihydroxy-5-nitrophenyl]-1,2,4-oxadiazol-3-yl)-4,6-dimethylpyridine 1-oxide], the “increase of ON time without dyskinesia compared to placebo” value [1] is given as “about 40 min”, the levodopa exposure ([2]; Parkinson's patients) is given as “increase levodopa exposure in a dose-dependent manner” and the motor outcomes ([2]; Parkinson's patients) is given as “improve”. The “food effect on rate and extent of absorption” value ([2]; US2014/0045900A1) was “marked food effect”, the “levodopa Cmax” value [2, 6] was “decrease” and the levodopa systemic exposure [2, 6] was “increase”. The “extracellular striatal levels of deuterated L-DOPA (SD-1077)” value [3] was “more effective than entacapone”.
For `[2H]C([2H])(c1ccc(O)c(O)c1)[C@]([2H])(N)C(=O)O` [α,β,β-D3-L-DOPA, L-2-Amino-2,3,3-trideutero-3-(3,4-dihydroxyphenyl) propionic acid], the “increase and prolongation of the output of striatal dopamine” value (striatal dopamine) is given as “significantly more than L-DOPA”, the “striatal dopamine levels compared to L-DOPA” value (striatal dopamine; in vivo) is given as “higher longer-lasting” and the “equi-effective dose compared to L-DOPA” value (Parkinson models; in vivo) is given as “about 60%”. For the same compound, the “motor activity compared to L-DOPA” value (Parkinson models; several Parkinson models, Malmlof et al.) was “improved” and the “effectiveness on motor performance compared to L-DOPA” value (“effectiveness … compared to L-DOPA” below) (6-OHDA lesioned rats) was “as effective as L-DOPA at lower doses”.
For “L-2-amino-2,3,3*-trideutero-3-(3,4-dihydroxyphenyl) propionic acid [Composition 1]”, the “effectiveness … compared to L-DOPA” value (6-OHDA lesioned rats) is given as “as effective as L-DOPA at lower doses”, the “observed dyskinesia side effects relative to levodopa” value (6-OHDA lesioned rats; rat model of Parkinson's disease, at equivalent motor effect, WO2014/122184A1) is given as 50% and the “dose yielding equivalent motor effect to levodopa, as % of the levodopa dose” value (6-OHDA lesioned rats; rat model of Parkinson's disease, WO2014/122184A1) is given as 35%.
In the case of `[2H]C([2H])(c1ccc(O)c(O)c1)[C@]([2H])(N)C(=O)O` [d3-L-DOPA], the “bioavailability of d3-dopamine in the striatum” value (dopamine in the striatum; 50 mg/kg ip, rats, compared to conventional L-DOPA (50 mg/kg ip), FIG. 1) is reported as “significantly increased”.
In the case of `N[C@@H](Cc1ccc(O)c(O)c1)C(=O)O` [levodopa], the “dopamine in the extracellular space in the striatal brain tissue” value (dopamine in the striatum; plus carbidopa) is listed as “increase”, the half life ([4]; in vivo) is listed as “about 1.5 hours” and the “share of an oral dose that reaches the brain” value ([4]; oral) is listed as 1%.
For `[2H][C@@H](c1ccc(O)c(O)c1)[C@]([2H])(N)C(=O)O` [α,β-D2-L-DOPA, S/S-2-amino-2,3-dideutero-3-(3,4-dihydroxyphenyl) propionic acid], the “increase and prolongation of the output of striatal dopamine” value (striatal dopamine) is listed as “significantly more than L-DOPA”, the striatal dopamine concentrations (striatal dopamine; compared with L-DOPA and α,β,β-D3-L-DOPA) is listed as “highest” and the “effectiveness … compared to L-DOPA” value (6-OHDA lesioned rats) is listed as “as effective as L-DOPA at lower doses”.
In the case of `Cc1ccc(C(=O)c2cc(O)c(O)c([N+](=O)[O-])c2)cc1` [tolcapone], the hepatotoxicity ([2]; after market launch) is given as “several cases of hepatotoxicity” and the “crossing of the BBB” value ([2]; in vivo) is given as “crosses the BBB”.
